{"source": "patent US12178940B2", "about": "“Controlled hydrogel delivery of focal adhesion kinase inhibitor for decreased scar formation” (THE BOARD OF TRUSTEES OF THE LELAND STANFORD JUNIOR …, priority 2018, dated 2024)", "key": {"[1]": {"test_system": "Other Targets", "conditions": "Table 1; cited from earlier work"}, "[2]": {"biological_target": "FAK (Homo sapiens, UniProt Q05397)", "sequence (Q05397 whole entry, species assumed)": "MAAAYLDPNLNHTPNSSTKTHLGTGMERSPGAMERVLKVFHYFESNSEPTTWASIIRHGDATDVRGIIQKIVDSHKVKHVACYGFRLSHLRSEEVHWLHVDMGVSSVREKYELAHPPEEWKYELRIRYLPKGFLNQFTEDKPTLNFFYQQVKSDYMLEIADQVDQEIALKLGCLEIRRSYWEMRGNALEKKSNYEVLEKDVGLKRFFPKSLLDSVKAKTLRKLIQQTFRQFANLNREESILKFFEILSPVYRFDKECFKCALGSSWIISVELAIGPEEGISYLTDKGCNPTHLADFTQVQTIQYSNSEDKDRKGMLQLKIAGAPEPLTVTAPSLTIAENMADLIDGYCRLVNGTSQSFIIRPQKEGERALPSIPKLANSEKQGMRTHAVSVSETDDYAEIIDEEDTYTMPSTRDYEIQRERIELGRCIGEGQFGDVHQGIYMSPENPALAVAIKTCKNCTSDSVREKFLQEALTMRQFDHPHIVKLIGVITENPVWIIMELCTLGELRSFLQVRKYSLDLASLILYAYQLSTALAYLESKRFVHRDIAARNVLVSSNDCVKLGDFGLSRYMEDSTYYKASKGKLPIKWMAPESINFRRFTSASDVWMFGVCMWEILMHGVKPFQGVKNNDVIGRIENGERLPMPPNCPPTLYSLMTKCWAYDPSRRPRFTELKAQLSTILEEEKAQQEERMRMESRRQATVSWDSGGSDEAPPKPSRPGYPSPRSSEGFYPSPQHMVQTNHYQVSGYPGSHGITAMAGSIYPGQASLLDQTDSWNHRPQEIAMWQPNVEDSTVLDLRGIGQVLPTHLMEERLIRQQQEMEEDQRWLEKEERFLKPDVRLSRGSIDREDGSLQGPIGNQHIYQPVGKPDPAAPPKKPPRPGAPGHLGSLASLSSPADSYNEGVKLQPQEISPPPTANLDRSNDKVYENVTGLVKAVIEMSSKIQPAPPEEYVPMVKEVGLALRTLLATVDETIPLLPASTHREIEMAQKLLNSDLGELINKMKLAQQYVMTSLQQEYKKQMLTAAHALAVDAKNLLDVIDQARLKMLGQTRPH", "conditions": "class symbols of Table 1, legend not given; cited from earlier work"}, "[3]": {"test_system": "incisional HTS model", "conditions": "intradermal injection; cited from earlier work"}, "[4]": {"test_system": "advanced solid tumors", "conditions": "cited from earlier work"}, "[5]": {"test_system": "murine dorsal incisions", "format": "in vivo", "conditions": "daily local subcutaneous injection", "procedure": "Hypertrophic scar model and local subcutaneous injection of FAKI: Incisional wounding and development of hypertrophic scars on the dorsum of mice were performed by previously described methods (Aarabi et al., 2007; Wong et al., 2011a). Animals were randomly assigned to receive 15, 75, or 150 μM concentrations of FAKI dissolved in 10% DMSO via daily local subcutaneous injection adjacent to the wound site. […] Specimens were harvested at Day 14 post-injury for histology and scar areas were quantified (FIG. 6)."}}, "note": "Counter-ions that a name gives are not always drawn. Like-named read-outs stand apart in the source and are kept apart here.", "data": [{"smiles": "CNC(=O)c1ccccc1Nc1nc(Nc2ccc(N3CCOCC3)cc2OC)ncc1Cl", "note": "[TAE226]", "values": [{"measurement": "Other Targets", "setting": "[1]", "result": "Insulin Receptor, IGF-1R, c-Met"}]}, {"smiles": "CN(c1ncccc1CNc1nc(Nc2ccc3c(c2)CC(=O)N3)ncc1C(F)(F)F)S(C)(=O)=O", "note": "[PF-562271 HCl]", "values": [{"measurement": "Other Targets", "setting": "[1]", "result": "CDK2/ CyclinE,CDK3/ CyclinE,CKD1/ CyclinB"}]}, {"smiles": "CC(C)=CCC/C(C)=C/CC/C(C)=C/CC/C(C)=C/CC/C(C)=C/CC/C(C)=C/CC/C(C)=C/CC/C(C)=C/CC/C(C)=C/CO", "note": "[Solanesol]", "values": [{"measurement": "FAK", "setting": "[2]", "result": "✓"}]}, {"smiles": "CS(=O)(=O)c1cccc(CNc2nc(Nc3ccc4c(c3)CCC(=O)N4)ncc2C(F)(F)F)c1", "note": "[PF-573228]", "values": [{"measurement": "inflammatory chemokine pathways", "setting": "[3]", "result": "suppressed inflammatory chemokine pathways"}, {"measurement": "scarring in vivo", "setting": "[3]", "result": "attenuated scarring"}]}, {"smiles": "CC(=O)NCC(=O)N1[C@@H]2CC[C@H]1c1ccc(Nc3ncc(C(F)(F)F)c(NC4CCC4)n3)cc12", "note": "[PF-03814735]", "values": [{"measurement": "Other Targets", "setting": "[1]", "result": "Aurora A, Aurora B, FLT1"}]}, {"smiles": "CNC(=O)c1ccc(Nc2ncc(C(F)(F)F)c(NCc3nccnc3N(C)S(C)(=O)=O)n2)cc1", "note": "[Defactinib]", "values": [{"measurement": "efficacy in treatment of advanced solid tumors", "setting": "[4]; clinical trials", "result": "proven effective"}, {"measurement": "FAK", "setting": "[2]", "result": "✓"}]}, {"smiles": "CN(c1ncccc1CNc1nc(Nc2ccc3c(c2)CC(=O)N3)ncc1C(F)(F)F)S(C)(=O)=O", "note": "[PF-562271]", "values": [{"measurement": "efficacy in treatment of advanced solid tumors", "setting": "[4]; clinical trials", "result": "proven effective"}, {"measurement": "pharmacokinetics in clinical trials", "setting": "[4]; clinical trials", "result": "desired pharmacokinetics"}, {"measurement": "reason for discontinuation as an anti-cancer agent", "setting": "[4]; dosed orally", "result": "potential drug-drug interactions"}, {"measurement": "major systemic toxicities", "setting": "[4]; oral administration, clinical trials", "result": "nausea/vomiting and gastrointestinal-related adverse effects"}, {"measurement": "scar lesions (Masson's Trichrome)", "setting": "[5]; 15 μM FAKI in 10% DMSO", "result": "reduced scar lesions"}, {"measurement": "scar lesions (Masson's Trichrome)", "setting": "[5]; 75 μM FAKI in 10% DMSO", "result": "reduced scar lesions"}]}]}
